Assay results published in PMC5244392, “Interspecies cathelicidin comparison reveals divergence in antimicrobial activity, TLR modulation, chemokine induction and regulation of phagocytosis” (Scientific Reports, 2017).

Assays:
E. coli O78 = assay: Bacterial growth delay (Bioscreen C), E. coli; assay type: cell-based, Escherichia coli; conditions: for Max: hours growth delay with 20 μM cathelicidin, E. coli, DMEM / Summary class, antimicrobial activity E. coli DMEM / Delay of the growth of E. coli: DMEM + FCS; for Max: hours growth delay with 20 μM cathelicidin, E. coli, DMEM / Max: hours growth delay with 20 μM cathelicidin, E. coli, MHB: 20 μM peptide, given if no Cmax was reached; for Max: hours growth delay with 20 μM cathelicidin, E. coli, DMEM / Max: hours growth delay with 20 μM cathelicidin, E. coli, MHB / Cmax: cathelicidin concentration resulting in a delay in bacterial growth with minimal 10 hours, E. coli, MHB / Cmax, E. coli, DMEM: N = 4; for Max: hours growth delay with 20 μM cathelicidin, E. coli, MHB / Cmax: cathelicidin concentration resulting in a delay in bacterial growth with minimal 10 hours, E. coli, MHB: time to OD 0.6 vs control; for Summary class, antimicrobial activity E. coli MHB / Summary class, antimicrobial activity E. coli DMEM: − is not defined in the key; for Cmax: cathelicidin concentration resulting in a delay in bacterial growth with minimal 10 hours, E. coli, MHB / Cmax, E. coli, DMEM: 1 × 10^6 CFU/ml, peptide 0.31-20 μM, 16 h, 37 °C, — = no Cmax reached up to 20 μM; for Cmax: cathelicidin concentration resulting in a delay in bacterial growth with minimal 10 hours, E. coli, MHB: 200 RPM; for Cmax, E. coli, DMEM: DMEM + FCS (10%); for Delay of the growth of E. coli: peptide concentration not given (0.31-20 μM tested)
Protocol: (§1) E. coli O78 (Zoetis Animal Health, Kalamazoo, MI, USA), E. coli ATCC 25922, Staphylococcus aureus ATCC 29213, and methicillin resistant Staphylococcus aureus (MRSA) (WKZ-2, human clinical isolate) were grown overnight from a glycerol stock in Mueller Hinton Broth (MHB) (Becton Dickinson, USA). Before use, bacteria were grown to mid-log phase in MHB for 2 hours at 37 °C, 200 RPM. Murine RAW264.7 macrophages (ATCC-TIB-71) were obtained from the American Type Culture Collection (ATCC, Manassas, VA, USA) and cultured in DMEM (41966-029; Thermo Fisher Scientific, Waltham, MA, USA) supplemented with 10% FCS (Bodinco B.V., Alkmaar, the Netherlands) (DMEM + FCS) at 37 °C, 5.0% CO2. Cells were seeded in 96-wells plates at 5 × 10^5 cells/ml or 12-wells plates at 2 × 10^5/ml for adherence overnight prior to stimulation.
(§2) Peptides (0.63 to 40 μM) and bacteria mid-log cultures (2 * 10^6 CFU/ml) were prepared in MHB or DMEM + FCS and mixed (100 μl peptide + 100 μl bacterial culture) in a Bioscreen C analyzer plate (Oy Growth Curves Ab Ltd, Helsingfors, Finland). Plates were placed in a Bioscreen C analyzer (Oy Growth Curves Ab Ltd) and bacteria were grown for 16 h at 37 °C with 200 RPM. The OD was measured every 15 minutes using a wideband filter (450–580 nm) to measure bacterial growth. The time needed grow above an OD of 0.6 was determined for all concentrations. Activity of peptides was expressed as the Cmax, the concentration of peptide required to delay the growth for 10 h compared to the control. Or, for peptides with low activity (no Cmax), activity was expressed as the hours of growth delay at 20 μM. Unlike the classic MIC and MBC determination used in microbiology, this method also enabled comparison of peptides with low antibacterial activity.
(§3) Twelve cathelicidins from 6 different species were selected for this study, namely: human LL-37, murine CRAMP, dog K9CATH, equine CATH (eCATH)-1, -2 and -3, chicken CATH (chCATH)-1, -2, and -3, porcine PMAP-23 and -36 and PR-39 (Table 1). Antimicrobial activity against E. coli and MRSA was directly compared under standardized conditions in MHB, a medium optimized for bacterial growth. Bacterial growth delay was defined as the delay in hours for peptide-treated bacteria to reach an OD of 0.6, compared to the non-treated control. Cmax is the minimal concentration needed to delay growth for a minimum of 10 hours compared to the non-treated control (Table 1 and Fig. 1A).
(§4) Figure 1 Antibacterial activity of cathelicidins. E. coli and MRSA (1 × 10^6 CFU/ml) of were grown in MHB or DMEM ± FCS for 16 hours under constant shaking (200 RPM). Every 15 minutes the OD was measured. Growth delay was defined as the time needed for peptide-treated bacteria to grow above an OD of 0.6 compared to the control bacteria (no peptide added) (A). Cathelicidins were tested in different concentrations (0.31 μM, 0.63 μM, 1.25 μM, 2.5 μM, 5 μM, 10 μM, and 20 μM) to determine the antimicrobial activity in MHB against E. coli (B) or MRSA (C) and in more physiological medium DMEM + FCS (D,E). Results are presented as average +/− SEM (N = 4).

[1] = tested on: methicillin resistant Staphylococcus aureus (MRSA) (WKZ-2, human clinical isolate); assay: Bacterial growth delay (Bioscreen C), MRSA; assay type: cell-based; conditions: for Max: hours growth delay with 20 μM cathelicidin, MRSA, DMEM / Cmax, MRSA, DMEM / Summary class, antimicrobial activity S. aureus DMEM: DMEM + FCS; for Max: hours growth delay with 20 μM cathelicidin, MRSA, DMEM / Max: hours growth delay with 20 μM cathelicidin, MRSA, MHB: 20 μM peptide, given if no Cmax was reached; for Max: hours growth delay with 20 μM cathelicidin, MRSA, DMEM / Max: hours growth delay with 20 μM cathelicidin, MRSA, MHB / Cmax, MRSA, DMEM / Cmax, MRSA, MHB: N = 4; for Cmax, MRSA, DMEM / Cmax, MRSA, MHB: 1 × 10^6 CFU/ml, peptide 0.31-20 μM, 16 h, 37 °C, — = no Cmax reached up to 20 μM; for Summary class, antimicrobial activity S. aureus DMEM / Summary class, antimicrobial activity S. aureus MHB: MRSA, − is not defined in the key
Protocol: as §1, §2, §3, §4

[2] = tested on: CCL2 (MCP-1) release by RAW264.7 cells; assay: Cathelicidin induced CCL2 release; assay type: cell-based, murine; conditions: for Summary class, chemokines CCL2 (2 h): 2 h stimulation, peptide 0.08-20 μM, − = no significant effect, N = 3
Protocol: as §1
ELISA Duoset kits for mouse TNFα, CCL5, CXCL10 and IL-10 were obtained from R&D systems (Minneapolis, MN, USA) and ELISAs were performed according to the manufacturer’s protocol. Samples were stored at −20 °C until analysis and, if needed, diluted in 1% BSA in PBS, pH 7.4. Absorbance at 450 nm was determined in a FLUOstar Omega microplate reader (BMG Labtech GmbH) and corrected for absorbance at 570 nm. Results were analyzed with MARS data analysis software (BMG Labtech GmbH).
Since cathelicidins have membrane-perturbing properties which might affect the host’s cell membrane, first the possible cytotoxicity of the cathelicidins to RAW264.7 cells was assessed. […] Next, RAW264.7 cells were stimulated with the cathelicidins at various concentrations for 2 h and 24 h, after which release of CCL2 (MCP-1), CCL5 (RANTES), CXCL10 (IP-10), TNFα and IL-10 was determined.
Figure 2 Cathelicidin induced chemokine and cytokine release by RAW264.7 cells. RAW264.7 cells were incubated for 2 h and 24 h with cathelicidins (0.08 μM, 0.31 μM, 1.25 μM, 5 μM, and 20 μM), after which the supernatants were harvested and tested for release of CCL2 at 2 h (A) and 24 h (B), CCL5 at 24 h (C) and CXCL10 at 24 h (D). Dotted line represents average cytokine release of control samples. Results are presented as average +/− SEM (N = 3). Statistical differences were determined by Two-way ANOVA with Bonferroni post-hoc test.

Row | Substance | Max: hours growth delay with 20 μM cathelicidin, E. coli, DMEM (E. coli O78) | Max: hours growth delay with 20 μM cathelicidin, E. coli, MHB (E. coli O78; MHB) | Summary class, antimicrobial activity E. coli MHB (E. coli O78; MHB) | Max: hours growth delay with 20 μM cathelicidin, MRSA, DMEM [1] | Max: hours growth delay with 20 μM cathelicidin, MRSA, MHB [1] | Summary class, antimicrobial activity E. coli DMEM (E. coli O78) | Cmax: cathelicidin concentration resulting in a delay in bacterial growth with minimal 10 hours, E. coli, MHB (E. coli O78; MHB) | Enhancement of CCL2 secretion after 2 h stimulation ([2]; 5 μM peptide) | Enhancement of CCL2 secretion after 2 h stimulation ([2]; 20 μM peptide) | Summary class, chemokines CCL2 (2 h) [2] | Cmax, MRSA, DMEM [1] | Summary class, antimicrobial activity S. aureus DMEM [1] | Cmax, MRSA, MHB [1] | Summary class, antimicrobial activity S. aureus MHB [1] | Cmax, E. coli, DMEM (E. coli O78) | Delay of the growth of E. coli (E. coli O78) | Activity against E. coli in MHB, in words (E. coli O78; MHB, peptide up to 20 μM)
1 | KRRHWFPLSFQEFLEQLRRFRDQLPFP [eCATH-2, equine CATH-2, 27 residues, charge +4] | 2.0 h | 9.0 h | ++ (++ = >8 hours inhibition at 20 μM) | 3.5 h | 1.5 h |  |  |  |  |  |  |  |  |  |  |  | 
2 | RVKRFWPLVPVAINTVAAGINLYKAIRRK [chCATH-3, chicken CATH-3, 29 residues, charge +7] | 5.5 h |  | +++ (+++ = Cmax at ≤20 μM) |  |  | + (+ = >4 hours inhibition at 20 μM) | 20 µM | 3–4 fold | 3–4 fold | ↑↑ (↑↑ = significant increase ≤5 μM) | 0.31 µM | +++ (+++ = Cmax at ≤20 μM) | 5 µM | +++ (+++ = Cmax at ≤20 μM) |  |  | 
3 | RFGRFLRKIRRFRPKVTITIQGSARF-NH2 [chCATH-2, chicken CATH-2, C-terminal amide, 26 residues, charge +9] |  |  | +++ (+++ = Cmax at ≤20 μM) |  |  | +++ (+++ = Cmax at ≤20 μM) | 5 µM |  | 3–4 fold | ↑ (↑ = significant increase at 20 μM) | 0.31 µM | +++ (+++ = Cmax at ≤20 μM) | 2.5 µM | +++ (+++ = Cmax at ≤20 μM) | 10 µM | at least 7 hours | 
4 | Ac-GRFRRLRKKTRKRLKKIGKVLKWIPPIVGSIPLGCG [PMAP-36, porcine α-helical cathelicidin, N-acetylated, 36 residues, charge +13] |  |  | +++ (+++ = Cmax at ≤20 μM) |  |  | +++ (+++ = Cmax at ≤20 μM) | 5 µM | 3–4 fold |  |  | 0.31 µM | +++ (+++ = Cmax at ≤20 μM) | 10 µM | +++ (+++ = Cmax at ≤20 μM) | 2.5 µM | at least 7 hours | 
5 | GLLRKGGEKIGEKLKKIGQKIKNFFQKLVPQPEQ [CRAMP, murine cathelicidin, 34 residues, charge +6] | 2.5 h | 9.0 h | ++ (++ = >8 hours inhibition at 20 μM) | 6.5 h | 0.5 h |  |  |  |  |  |  | + (+ = >4 hours inhibition at 20 μM) |  |  |  |  | 
6 | RIIDLLWRVRRPQKPKFVTVWVR [PMAP-23, porcine α-helical cathelicidin, 23 residues, charge +6] | 3.5 h | 9.5 h | ++ (++ = >8 hours inhibition at 20 μM) |  |  |  |  |  |  |  | 10 µM | +++ (+++ = Cmax at ≤20 μM) | 20 µM | +++ (+++ = Cmax at ≤20 μM) |  |  | 
7 | RLKELITTGGQKIGEKIRRIGQRIKDFFKNLQPREEKS [Peptide K9CATH, dog cathelicidin, 38 residues, charge +6] | 1.5 h | 3.0 h |  | 4.5 h | 0.5 h |  |  |  |  |  |  | + (+ = >4 hours inhibition at 20 μM) |  |  |  |  | no or very little activity
